Data on two compounds can be found in publication PMC4789278, “Pharmacological inhibition of LSD1 for the treatment of MLL-rearranged leukemia” (Journal of Hematology & Oncology, 2016).

Series [1] concerns Molm-13 leukemia cells. The series can be described thus: Antiproliferation assay (XTT), Molm-13. The series is classed as cell-based. As to conditions: Homo sapiens, MOLM-13, 360 h; 15-day treatment; MLL-rearranged leukemia; read-out: Molm-13 EC50 (antiproliferative). The procedure: (§1) These compounds were incubated with a panel of six human leukemia and solid tumor cell lines, including two MLL-rearranged leukemia cells MV4-11 and Molm-13 containing fusion oncogenes MLL-AF4 and -AF9, respectively. […] Also included in the studies are breast cancer MCF-7 and prostate cancer LNCaP cells.
(§2) Proliferation inhibition assay for suspension leukemia cells was performed using an XTT assay kit (Roche) with our previously described method. Proliferation inhibition assay for solid tumor cell lines MCF-7 and LNCaP was performed using our previous described MTT assay. The antiproliferation EC50 values were determined by Prism, and the reported results were the mean values of at least three independent experiments.
On the technique in general: Tetrazolium assays rely on reduction of a dye to a coloured formazan, in cell work by metabolically active cells.

For series [2], the system named is breast cancer MCF-7 cells. The series can be described thus: Antiproliferation assay (MTT), MCF-7. The following applies: Homo sapiens, MCF7, 360 h, 15-day treatment, read-out: MCF-7 EC50 (antiproliferative). It counts as cell-based. The procedure:
as §1, §2

Series [3] is described as follows: Toxicity in mice (weight, blood test). The series is classed as in vivo. An excerpt: Continuous infusion of 1 using a subcutaneously implanted osmotic pump was used for in vivo studies to avoid the unfavorable pharmacokinetics because this route may provide a stable plasma drug concentration.
Series [4] has as its system MV4-11 leukemia cells. The series can be described thus: Antiproliferation assay (XTT), MV4-11. The series is classed as cell-based. The following applies: Homo sapiens, MV4-11, 360 h; 15-day treatment; MLL-rearranged leukemia; read-out: MV4-11 EC50 (antiproliferative). On the procedure:
Next, these three compounds were tested for their cellular activity against proliferation of MV4-11 leukemia cells bearing MLL-AF4 fusion oncogene.
as §1, §2

For series [5], the target named is T1, human MAO-A (Homo sapiens, UniProt P21397).
T1 construct: purchased Sigma
T1 sequence (P21397 1-527): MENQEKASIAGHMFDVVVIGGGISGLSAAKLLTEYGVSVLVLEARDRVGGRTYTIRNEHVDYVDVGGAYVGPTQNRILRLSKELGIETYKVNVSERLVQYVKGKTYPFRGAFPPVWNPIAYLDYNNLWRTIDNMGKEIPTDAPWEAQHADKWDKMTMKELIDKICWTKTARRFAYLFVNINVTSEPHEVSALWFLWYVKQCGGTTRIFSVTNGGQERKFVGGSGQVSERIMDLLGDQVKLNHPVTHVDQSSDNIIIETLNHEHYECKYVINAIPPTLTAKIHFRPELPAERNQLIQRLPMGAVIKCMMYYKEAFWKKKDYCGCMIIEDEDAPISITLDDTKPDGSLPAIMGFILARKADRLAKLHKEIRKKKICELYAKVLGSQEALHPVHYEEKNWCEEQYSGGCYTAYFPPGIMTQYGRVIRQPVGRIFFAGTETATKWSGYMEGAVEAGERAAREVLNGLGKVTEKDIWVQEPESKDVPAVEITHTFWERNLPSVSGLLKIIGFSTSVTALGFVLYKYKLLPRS
The series can be described thus: MAO-A inhibition (MAO-Glo). The series is classed as biochemical. The procedure: The cyclopropylamine LSD1 inhibitors were generally derived from MAO-A/-B inhibitor tranylcypromine, an antidepression drug. Because MAO-A and -B play important roles in the degradation of neurotransmitters (e.g., serotonin and dopamine) in the central nervous system, selective inhibition for LSD1 is highly desirable.
(§3) Recombinant human MAO-A and -B were purchased from Sigma. The inhibitory activity was determined using MAO-Glo assay kit (Promega). In brief, following the manufacturer’s protocol, assays were performed in 384-well white plates (Corning) using MAO-A or -B (100 nM) with a final volume of 20 μL. Reactions were quenched after 60 min by adding reconstituted luciferin detection reagent (20 μL/well); 20 min after addition of the detection reagent, the luminescence of each well was measured using Beckman DTX-880 microplate reader. IC50 calculation was similar to that of LSD1.

Details of series [6]: method as in PMID 22754608. As to conditions: mice; cited from earlier work.
Series [7] concerns the target T2, human MAO-B (Homo sapiens, UniProt P27338).
T2 construct: purchased Sigma
T2 sequence (P27338 1-520): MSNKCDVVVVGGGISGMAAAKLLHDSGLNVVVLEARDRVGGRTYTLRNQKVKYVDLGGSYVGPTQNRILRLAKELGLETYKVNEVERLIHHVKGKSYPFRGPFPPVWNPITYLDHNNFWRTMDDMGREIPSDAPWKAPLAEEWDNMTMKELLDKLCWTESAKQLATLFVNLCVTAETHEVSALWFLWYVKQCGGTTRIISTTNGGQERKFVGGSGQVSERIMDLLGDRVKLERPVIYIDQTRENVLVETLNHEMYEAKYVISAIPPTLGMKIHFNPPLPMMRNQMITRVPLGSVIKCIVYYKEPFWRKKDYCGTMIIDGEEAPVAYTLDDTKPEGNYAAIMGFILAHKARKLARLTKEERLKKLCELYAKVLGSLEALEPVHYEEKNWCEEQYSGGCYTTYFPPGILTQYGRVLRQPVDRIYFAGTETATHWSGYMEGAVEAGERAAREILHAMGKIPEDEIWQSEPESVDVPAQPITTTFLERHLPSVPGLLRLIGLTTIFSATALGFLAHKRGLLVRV
The series can be described thus: MAO-B inhibition (MAO-Glo). The series is classed as biochemical. On the procedure: Because MAO-A and -B play important roles in the degradation of neurotransmitters (e.g., serotonin and dopamine) in the central nervous system, selective inhibition for LSD1 is highly desirable.
as §3

Series [8] has as its system MV4-11 cells. The series can be described thus: Cell migration assay (transwell). The series is classed as cell-based, human. As to conditions: treatment for 4 days. On the procedure: Importantly, only these stem-like cancer cells can form new tumors when transplanted into a new host, while the other non-stem cancer cells fail to do so. These stem-like cancer cells are more drug resistant and believed to be responsible for tumor metastasis and relapse. […] CD14 and CD11b are two cell surface proteins characteristic to differentiated macrophages/monocytes. […] Similarly, incubation with 2 led to considerably more CD11b^+ cells (Fig. 3b).
Cell migration assay was performed in a 24-well transwell plate with 8-μm polyethylene terephthalate membrane filters (Falcon cell culture insert; Becton-Dickinson) separating the lower from the upper culture chambers, according to the manufacturer’s instructions. […] Triplicate samples of 10^6 cells/well were plated in the upper chamber containing serum-free RPMI-1640. RPMI-1640 supplemented with 10 % FBS in the bottom chamber was used to attract cells to move through the filter. Cells were allowed to incubate at 37 °C for 4 h, after which the cells that had migrated through the pores were harvested in the bottom chamber and counted. Results are presented as means ± s.d.

[9] abbreviates: range covers MAO-A and MAO-B, read-out: IC50 against MAO-A and -B (range over both enzymes).

Entries after “also recorded” stand apart in the source; their conditions may differ. Like-named read-outs stand apart in the source and are kept apart here.

Usually EC50 stands for the concentration needed to bring the measured effect to its halfway point. One may read the IC50 as the concentration needed to halve the response being measured.

Take `CN1CCN(C(=O)CNC2CC2c2ccc(OCc3ccccc3)cc2)CC1` (stereo not drawn) [Compound 1]: the EC50 in series [1] amounted to 0.096 µM; in series [2] it was 1.6 µM; in series [4] it was 0.01 µM. Also, in series [3] (2.5 and 5 mg/kg/day for 28 days, osmotic pump), the “weight losses and visible signs of toxicity” value is “did not cause weight losses as well as any visible signs of toxicity”. The “blood cell counts and hemoglobin vs control” value in series [3] (blood test on day 28) is “no significant differences; also recorded: no significant changes in blood cell counts”. Further, the IC50 was 17.5 to 480 µM in series [5] (setting [9]) and 17.5 µM in series [5] (read-out: MAO-A IC50). In addition, the “half-life in the plasma” value in series [6] is listed as ~ 1 h.
As for `CN1CCN(C(=O)CNC2CC2c2ccc(-c3ccc(F)nc3)cc2)CC1` (stereo not drawn) [Compound 2], the half-maximal inhibitory concentration (IC50) in series [7] was 480 µM; in series [5] (setting [9]), 17.5 to 480 µM; in series [5] (read-out: MAO-A IC50), 120 µM. In addition, the “ability of MV4-11 cells to migrate through a membrane with 8-μm pores” value in series [8] is listed as “reduced ability for MV4-11 cells to migrate”.
